Experimental data from patent publication US20210025895A1, “CANCER SERUM BIOMARKERS AND METHODS OF USE THEREOF” (X4 Pharmaceuticals, Inc., priority 2018, published 2021).
Where “and” joins values, the source holds several entries; their conditions need not be identical. Equal values may be shown once.

Legend:
[1] = in vivo; conditions: terminal half-life (T1/2)
[2] = test system: CXCL10; assay: Serum CXCL10 in melanoma patients, Multi-Analyte Profile Platform (Myriad RBM); type: in vivo, human; conditions: individual melanoma patients
Experimental: (§1) Subjects were first screened and evaluated for baseline measurements.
(§2) Prior to treatment two (2) baseline serum samples were collected from each patient.
(§3) Three (3) weeks after treatment was initiated, additional serum samples were collected from each patient. Additional biopsy samples were also collected unless the attending physician recommended against the biopsy. Following sample collection, subjects were administered the first of two doses of pembrolizumab (2 mg/kg, i.v.).
(§4) Three (3) weeks after the administration of the first dose of pembrolizumab (six weeks from beginning of treatment) additional serum samples were collected from each patient. Subjects then administered a second dose of pemrolizumab (2 mg/kg, i.v.).
(§5) Three (3) weeks after the administration of the second dose of pembrolizumab (nine weeks from the beginning of treatment) additional serum samples were collected. Additional biopsy samples were also collected unless the attending physician recommended against the biopsy.
(§6) Five (5) additional patients were evaluated. Baselines in Tables 1 and 2 represent measurements taken on Day 1. Baselines in Tables 1a and 2a represent an average of two measurements taken at screening and on Day 1.

[3] = Phase 1 and 2a trials; cited from earlier work
[4] = test system: advanced or metastatic melanoma; assay: Tumor sample / tumor microenvironment biomarkers in solid tumors such as melanoma; type: in vivo, human
Experimental: A primary comparison is the density of specific cell phenotypes in the tumor microenvironment in the pre-treatment biopsy vs. the Week 4 and EOT biopsies. CD8^+ T cells/mm^−2 are measured in melanoma tumor parenchyma prior to treatment.

[5] = test system: serum cytokines and chemokines; assay: Serum chemokines, cytokines and growth factors in melanoma patients, change vs baseline; type: in vivo, human
Experimental: as §1, §2, §3, §6

[6] = test system: CXCL9; assay: Serum CXCL9 in melanoma patients, Multi-Analyte Profile Platform (Myriad RBM); type: in vivo, human; conditions: individual melanoma patients
Experimental: as §1, §2, §3, §4, §5, §6

[7] = test system: melanoma, renal cell carcinoma, and ovarian cancer; conditions: murine models; cited from earlier work
[8] = Solubility of X4P-001; type: physicochemical
[9] = test system: advanced clear-cell renal-cell carcinoma; conditions: cited from earlier work; for objective response rate: Phase 3, nivolumab 3 mg/kg iv every two weeks vs everolimus 10 mg orally daily, P<0.001
[10] = test system: pancreatic adenocarcinoma; conditions: cited from earlier work
[11] = test system: unresectable or metastatic melanoma; conditions: Phase 3 trial, P<0.001; cited from earlier work
[12] = solid tumors, e.g. advanced or metastatic melanoma

NCCCCN(Cc1nc2ccccc2[nH]1)[C@H]1CCCc2cccnc21 [X4P-001]
half-life [1]: 12 to 24 h
Patient Serum CXCL10 Levels, Post-X4P-001 Monotherapy ([2]; Table 2, three weeks single agent therapy): 767 pg/mL and 146 pg/mL and 262 pg/mL and 101 pg/mL and 123 pg/mL and 384 pg/mL and 118 pg/mL and 174 pg/mL and 139 pg/mL and 331 pg/mL and 521 pg/mL
Patient Serum CXCL10 Levels, Post-X4P-001 Monotherapy ([2]; Table 2a (updated data, 16 patients)): 767 pg/mL and 146 pg/mL (2×) and 262 pg/mL and 101 pg/mL and 123 pg/mL and 384 pg/mL and 118 pg/mL and 174 pg/mL and 272 pg/mL and 166 pg/mL and 350 pg/mL and 139 pg/mL and 331 pg/mL and 521 pg/mL
pharmacodynamic activity, circulating white blood cells (WBCs) [3]: dose- and concentration-related changes in circulating white blood cells
volume of distribution (VL) [3]: high volume of distribution
levels of Treg cells [4, 12]: without significantly increasing levels of Treg cells
levels of macrophages in the tumor [4, 12]: without significantly modulating levels of macrophages in the tumor
numbers of CD8+ T cells and/or CD4+ T cells in tumors [4, 12]: increases observed numbers of CD8^+ T cells and/or CD4^+ T cells
IFN-γ gene signature ([4]; tumor): increases one or more of a panel of IFN-γ related genes
PD-L1 expression ([4]; tumor samples and tumor microenvironment): increases PD-L1 expression in tumor samples and the tumor microenvironment
CTL signature gene expression ([4]; tumor samples or tumor microenvironment): increases gene expression of one or more of a panel of cytotoxic T cell (CTL)-related genes
serum CXCL9 and CXCL10 levels ([5]; following monotherapy, melanoma patients): generally increase following monotherapy
levels of serum CXCL9 and CXCL10 ([5]; patients with solid tumors, e.g. advanced or metastatic melanoma): increases levels of serum CXCL9 and CXCL10
levels of serum cytokine panel ([5]; serum): modulates levels of one or more of a panel of serum cytokines
Patient Serum CXCL9 Levels, Post-X4P-001 Monotherapy ([6]; Table 1, three weeks single agent therapy): 836 pg/mL and 2260 pg/mL and 2530 pg/mL and 843 pg/mL and 2020 pg/mL and 1020 pg/mL and 1410 pg/mL and 766 pg/mL and 794 pg/mL and 1380 pg/mL and 425 pg/mL
Patient Serum CXCL9 Levels, Post-X4P-001 Monotherapy ([6]; Table 1a (updated data, 16 patients)): 836 pg/mL and 2260 pg/mL and 2530 pg/mL and 843 pg/mL and 2020 pg/mL and 1020 pg/mL and 1410 pg/mL and 766 pg/mL and 1245 pg/mL and 769.5 pg/mL and 460.5 pg/mL and 1030 pg/mL and 1750 pg/mL and 794 pg/mL and 1380 pg/mL and 425 pg/mL
anti-tumor activity, including decreased metastasis and increased overall survival [7]: significant anti-tumor activity
solubility ([8]; aqueous buffer, pH range 3.0 to 8.0 (freely soluble)): > 100 mg/mL
solubility in water ([8]; water): only slightly soluble

CO[C@H]1C[C@@H]2CC[C@@H](C)[C@@](O)(O2)C(=O)C(=O)N2CCCC[C@H]2C(=O)O[C@H]([C@H](C)C[C@@H]2CC[C@@H](OCCO)[C@H](OC)C2)CC(=O)[C@H](C)/C=C(\C)[C@@H](O)[C@@H](OC)C(=O)[C@H](C)C[C@H](C)/C=C/C=C/C=C/1C [everolimus]
objective response rate [9]: 5%

c1cc(CN2CCCNCCNCCCNCC2)ccc1CN1CCCNCCNCCCNCC1 [plerixafor, Plerixafor]
tumor growth ([10]; in combination with anti-PD-L1): synergistically decreased tumor growth
T-cell accumulation among cancer cells ([10]; murine pancreatic adenocarcinoma): induced rapid T-cell accumulation among the cancer cells
anti-tumor activity, including decreased metastasis and increased overall survival [7]: significant anti-tumor activity

ipilimumab: anti-CTLA-4 antibody
objective response rate [11]: 12%

nivolumab: fully human IgG4 monoclonal antibody binding to the PD-1 receptor
objective response rate [9]: 25%
incidence of Grade 3 or 4 treatment-related adverse events ([9]; vs everolimus): lower incidence of Grade 3 or 4 treatment-related adverse events
median overall survival ([9]; vs everolimus): longer median overall survival

pembrolizumab: humanized IgG4 kappa monoclonal antibody that blocks the interaction between PD-1 and its ligands
objective response rate [11]: 33%
